≈ marks a conversion by molar mass, not a printed value. Like-named read-outs stand apart in the source and are kept apart here.
Assays:
Type in all cases: cell-based
[1] = test system: Staphylococcus aureus (ATCC25923); experiment: Antibacterial assay (MIC); conditions: read-out: MIC against S. aureus
Method: Antibacterial assay: The minimum inhibitory concentration (MIC) of the newly synthesized compounds was tested against E. coli (ATCC 25922) and Staphylococcus aureus (ATCC25923). The concentration of bacteria grown in Lysogeny Broth (LB) was adjusted to an absorbance at 600 nm (OD600) of 0.08-0.1 using LB. A series of 2-fold dilutions was made for each compound in 96-well plates (USA Scientific CC7682-7596) starting from 256 μg/mL, and then, 50 μL of the diluted bacteria suspension was transferred to the wells. Bacteria were incubated for 18-24 h at 35° C. before measuring OD600 to assess growth. Experiments for each compound were done at least in duplicates.

[2] = target: T1, Cx43 HCs (Homo sapiens, UniProt P17302); experiment: Cx43-dependent growth complementation assay in E. coli LB2003
T1 construct: expressed in transfected cells
T1 sequence (P17302 whole entry): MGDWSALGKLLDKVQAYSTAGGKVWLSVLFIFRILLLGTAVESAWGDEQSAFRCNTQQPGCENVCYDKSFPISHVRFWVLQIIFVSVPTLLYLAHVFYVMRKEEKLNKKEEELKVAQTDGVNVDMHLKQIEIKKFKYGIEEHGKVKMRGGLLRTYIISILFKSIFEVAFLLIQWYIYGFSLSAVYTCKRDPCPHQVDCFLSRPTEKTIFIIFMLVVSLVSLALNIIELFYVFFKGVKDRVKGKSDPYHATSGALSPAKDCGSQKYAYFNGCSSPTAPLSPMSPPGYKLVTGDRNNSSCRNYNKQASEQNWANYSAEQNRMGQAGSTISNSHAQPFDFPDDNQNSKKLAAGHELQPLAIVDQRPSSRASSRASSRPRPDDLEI

[3] = target: T2, human Cx26 HCs (Homo sapiens, UniProt P29033); experiment: Cx26-dependent growth complementation assay in E. coli LB2003; conditions: for IC50: first Table 2, read-out: IC50, inhibition of Cx26 by synthetic AGs
T2 construct: expressed in transfected cells; host or cells: E. coli LB2003 (carrying pREP4), transformed with pQE-Cx26, IPTG-induced
Method: These derivatives were prepared by sequential benzylation and methylation followed by reduction of azido groups or hydrogenolysis of the Bn. […] Connexin HC inhibition was conducted using a bacteria-based assay of HC function^39. In this assay, Cx26 HCs are expressed in E. coli LB2003 cells, which lack three major K^+ uptake systems (Kdp, Kup and Trk), and as a result they cannot grow in low-[K^+] media^39-41. However, growth of this E. coli strain in low-[K^+] medium can be rescued by expression of K^+-permeable channels such as connexin HCs^39, 42-43. Under the conditions of the assay (LB2003 cells expressing HCs and grown in low-K^+ medium), inhibition of the HCs reduces or abolishes growth^39, 42-43. This is a simple assay where bacterial growth in multi-well plates can be followed by measuring the absorbance at 600 nm (OD600)^29.
LB2003 cells generously provided by Dr. E. P. Bakker (Osnabruk University, Osnabruk, Germany) were transformed with the plasmid pQE-Cx26 (human Cx26 into pQE60) and pREP4. […] LB2003 cells cannot grow in low-[K^+] media because of insufficient K^+ uptake for growth due to the knockout of three key K^+ transporters (Atrk, Akup, Akdp strain)^2-4. Details and validation of the growth complementation assay have been published recently^2. In brief, competent LB2003 containing the pREP4 plasmid were transformed with pQE-Cx26. These cells were grown overnight in Luria-Bertani medium (BD, Franklin Lakes, NJ, USA) supplemented with 100 mM KCl (to allow growth) and 0.4 mg/mL ampicillin, and then washed four times with NLM (see below), to remove residual K^+ from the Luria-Bertani medium. The washed cells were resuspended in complementation growth medium to an OD600 of 0.2. NLM contained 46 mM Na2HPO4, 23 mM NaH2PO4, 8 mM (NH4)2SO4, 0.4 mM MgSO4, 0.012 mM FeSO4, 1 mM sodium citrate, 44 mM glucose and 0.006 mM thiamine hydrochloride, pH 7.0. KLM had the same composition that NLM except for the equimolar replacement of Na^+ with K^+. For growth complementation we used NLM+4 mM KCl, and Cx26 expression was induced with 0.5 mM IPTG at the time of dilution to OD600=0.2. For the assay, the cells were seeded in 96-well plates and were incubated at 30° C., with shaking at 500 rpm. OD600 was measured after 18-h incubation in a plate reader. The initial OD600=0.2 was subtracted for growth calculations. Data are presented as means±SEM. Statistically significant differences were calculated by the Student t-test for unpaired data. Data were obtained from at least 3 independent experiments, with 3 repeats per experiment.

[4] = K46 members, the 20th table, read-out: IC50 (μM) against Cx43

In the case of NCC1OC(OC2C(N)CC(N)C(OC3OC(COCc4cccc5ccccc45)C(OCc4cccc5ccccc45)C(N)C3O)C2O)C(O)C(O)C1O (centres unmarked) [Compound 15, 4″,6″-Di-O-(1-naphthalenmethyl) kanamycin], the MIC [1] is reported as 64 mg/mL (≈ 83.7 mM), the IC50 [2, 4] is reported as 15 µM and the “Cx43 Imax (maximal inhibition)” value ([2]; the 12th table, Hill fit) is reported as 122%. For the same molecule, the IC50 ([2]; the 12th table, Hill fit, mean ± SEM, some n = 1, read-out: Cx43 IC50) was 15 µM and the IC50 [3] was 6.6 ± 0.5 µM.

For NCC1OC(OC2C(N)CC(N)C(OC3OC(COCc4cccc(-c5ccccc5)c4)C(OCc4cccc(-c5ccccc5)c4)C(N)C3O)C2O)C(O)C(O)C1O (centres unmarked) [Compound 16, 4″,6″-Di-O-(3-phenylbenzyl)-kanamycin], the MIC [1] was 16 mg/mL (≈ 19.6 mM), the IC50 [2, 4] was 5.5 ± 2 µM and the “Cx43 Imax” value ([2]; the 13th table) was 121 ± 25%. For the same molecule, the IC50 ([2]; the 13th table, read-out: Cx43 IC50) was 5.5 ± 2 µM, the IC50 [3] was 6.2 ± 0.7 µM and the “Cx26 Imax” value ([3]; the 13th table) was 102 ± 2%.

— patent US12286452B2, “Amphiphilic aminoglycoside connexin hemichannel inhibitors” (Texas Tech University System, priority 2018, dated 2025)
